From patent US11992473B2, “Compositions and methods for diagnosis and treatment of conditions related to the quality of aging and longevity” (Epitracker, Inc., priority 2018, dated 2024)

Tests used:
[1] = test system: Peripheral blood mononuclear cells, B cells; experiment: BioMAP Diversity PLUS BT system (T cell dependent B cell activation); format: cell-based, human; settings: BT system
Procedure: (§1) This study examined activities of small molecules discovered in dolphin serum that had protective profiles against diseases of aging which can impact quality of life and longevity. These molecules were tested across 12 human primary cell-based systems as part of DiscoverX's BioMAP Diversity Plus program. These systems are designed to model complex human tissue and disease biology of the vasculature, skin, lung, and inflammatory tissues. Quantitative measurements of biomarker activities across this broad panel, along with comparative analysis of biological activities of known bioactive agents were used to predict and compare the efficacy and function of the four compounds. Compounds were tested at four concentrations (740 nm and 2.2, 6.7 and 20 μM).
(§2) BioMAP panels consist of human primary cell-based systems designed to model different aspects of the human body in an in vitro format. The 12 systems in the Diversity PLUS panel allow test agent characterization in an unbiased way across a broad set of systems modeling various human disease states. BioMAP systems are constructed with one or more primary cell types from healthy human donors, with stimuli (such as cytokines or growth factors) added to capture relevant signaling networks that naturally occur in human tissue or pathological conditions. Vascular biology is modeled in both a Th1 (3C system) and a Th2 (4H system) inflammatory environment, as well as in a Th1 inflammatory state specific to arterial smooth muscle cells (CASM3C system). Additional systems recapitulate aspects of the systemic immune response including monocyte-driven Th1 inflammation (LPS system) or T cell stimulation (SAg system), chronic Th1 inflammation driven by macrophage activation (lMphg system) and the T cell-dependent activation of B cells that occurs in germinal centers (BT system). The BE3C system (Th1) and the BF4T system (Th2) represent airway inflammation of the lung, while the MyoF system models myofibroblast-lung tissue remodeling. Lastly, skin biology is addressed in the KF3CT system modeling Th1 cutaneous inflammation and the HDF3CGF system modeling wound healing.
(§3) Each test agent generates a signature BioMAP profile that is created from the changes in protein biomarker readouts within individual system environments. Biomarker readouts (7-17 per system) are selected for therapeutic and biological relevance, are predictive for disease outcomes or specific drug effects and are validated using agents with known mechanism of action (MoA). Each readout is measured quantitatively by immune-based methods that detect protein (e.g., ELISA) or functional assays that measure proliferation and viability. BioMAP readouts are diverse and include cell surface receptors, cytokines, chemokines, matrix molecules and enzymes.
(§4) The Diversity PLUS panel allows test agent characterization in an unbiased way across a broad set of systems modeling various human disease states. These systems are designed to model complex human tissue and disease biology of the vasculature, skin, lung, and inflammatory tissues.
(§5) BioMAP systems are constructed with one or more primary cell types from healthy human donors, with stimuli (such as cytokines or growth factors) added to capture relevant signaling networks that naturally occur in human tissue or pathological conditions. Vascular biology is modeled in both a Th1 (3C system) and a Th2 (4H system) inflammatory environment, as well as in a Th1 inflammatory state specific to arterial smooth muscle cells (CASM3C system). Additional systems recapitulate aspects of the systemic immune response including monocyte-driven Th1 inflammation (LPS system) or T cell stimulation (SAg system), chronic Th1 inflammation driven by macrophage activation (lMphg system) and the T cell-dependent activation of B cells that occurs in germinal centers (BT system).

[2] = test system: Dermal fibroblasts; experiment: BioMAP Diversity PLUS HDF3CGF system (wound healing and matrix/tissue remodeling); format: cell-based, human
Procedure: as §1, §2, §3, §4, §5

[3] = test system: Venular endothelial cells, peripheral blood mononuclear cells; experiment: BioMAP Diversity PLUS SAg system (T cell stimulation, Th1 type chronic inflammation); format: cell-based, human
Procedure: as §1, §2
as §3, with “enzymes. In total, the Diversity PLUS panel contains 148 biomarker readouts that capture biological changes that occur within the physiological context of the particular BioMAP system. Specific BioMAP activities have been correlated to in vivo biology, and multiparameter BioMAP profiles have been used to distinguish compounds based on MoA and target selectivity across diverse physiological systems.” for “enzymes.”
(§6) The Diversity PLUS panel allows test agent characterization in an unbiased way across a broad set of systems modeling various human disease states. These systems are designed to model complex human tissue and disease biology of the vasculature, skin, lung, and inflammatory tissues. Quantitative measurements of 148 biomarker activities across this broad panel, along with comparative analysis of biological activities from known bioactive agents, were used to predict and compare the efficacy and function of each selected compound at four concentrations (740 nm and 2.2, 6.7 and 20 μM). […]

[4] = white powder; room temperature; cited from earlier work
[5] = test system: Venular endothelial cells; experiment: BioMAP Diversity PLUS 4H system (Th2 type vascular inflammation); format: cell-based, human; settings: 6.7 μM
Procedure: as §1, with “Compounds were tested at four concentrations (740 nm and 2.2, 6.7 and 20 μM).” left out
as §3, with “enzymes. […]” for “enzymes.”

[6] = test system: Lung fibroblasts; experiment: BioMAP Diversity PLUS MyoF system (myofibroblast differentiation and tissue remodeling); format: cell-based, human
Procedure: as §1, §2
as §3, with “enzymes. In total, the Diversity PLUS panel contains 148 biomarker readouts that capture biological changes that occur within the physiological context of the particular BioMAP system. Specific BioMAP activities have been correlated to in vivo biology, and multiparameter BioMAP profiles have been used to distinguish compounds based on MoA and target selectivity across diverse physiological systems.” for “enzymes.”
as §6

[7] = test system: Bronchial epithelial cells; experiment: BioMAP Diversity PLUS BE3C system (Th1 type lung inflammation); format: cell-based, human
Procedure: as §1, §2
as §3, with “enzymes. In total, the Diversity PLUS panel contains 148 biomarker readouts that capture biological changes that occur within the physiological context of the particular BioMAP system. Specific BioMAP activities have been correlated to in vivo biology, and multiparameter BioMAP profiles have been used to distinguish compounds based on MoA and target selectivity across diverse physiological systems.” for “enzymes.”
as §6

[8] = test system: Macrophages, venular endothelial cells; experiment: BioMAP Diversity PLUS lMphg system (Th1 type chronic inflammation, macrophage activation); format: cell-based, human; settings: /Mphg system
Procedure: as §1, §2
as §3, with “enzymes. In total, the Diversity PLUS panel contains 148 biomarker readouts that capture biological changes that occur within the physiological context of the particular BioMAP system. Specific BioMAP activities have been correlated to in vivo biology, and multiparameter BioMAP profiles have been used to distinguish compounds based on MoA and target selectivity across diverse physiological systems.” for “enzymes.”
as §6

[9] = test system: Keratinocytes, dermal fibroblasts; experiment: BioMAP Diversity PLUS KF3CT system (Th1 type cutaneous inflammation); format: cell-based, human
Procedure: as §1
BioMAP panels consist of human primary cell-based systems designed to model different aspects of the human body in an in vitro format. The 12 systems in the Diversity PLUS panel allow test agent characterization in an unbiased way across a broad set of systems modeling various human disease states. […]
as §3, with “enzymes. In total, the Diversity PLUS panel contains 148 biomarker readouts that capture biological changes that occur within the physiological context of the particular BioMAP system. […]” for “enzymes.”

Question: Which “Significant log10 reduction compared to nontreated controls: Secreted interleukin 17F (IL-17F)” value ([1]; 0.7 μM) does the source give for N[C@@H](CC(O)C(=O)O)C(=O)O (some centres unmarked) [4-hydroxyglutamate] here?
Answer: −0.16 log10

Question: What about the decorin ([2]; human cell system mimicking wound healing, remodeling, fibrosis and chronic inflammation (FIG. 7)) of the same compound?
Answer: inhibitory activity

Question: What about the “Significant log10 reduction compared to nontreated controls: T cell proliferation” value ([3]; SAg system, 0.7 μM) of the same compound?
Answer: −0.08 log10

Question: What about the “Significant log10 reduction compared to nontreated controls: T cell proliferation” value ([3]; SAg system, 2.2 μM) of the same compound?
Answer: −0.09 log10

Question: And the “Significant log10 reduction compared to nontreated controls: T cell proliferation” value ([3]; SAg system, 6.7 μM)?
Answer: −0.18 log10

Question: What about the T cell proliferation ([3]; human cell system mimicking T-cell driven chronic inflammation and autoimmune diseases, concentrations ranging from 740 nm to 6.7 μM (FIG. 2)) of the same compound?
Answer: decreased

Question: What about the “stability of the pure or purified metabolite” value [4] of the same compound?
Answer: stable at room temperature

Question: What does the source list for CCCCCCCCCCCCCCC(=O)O[C@H](CC(=O)[O-])C[N+](C)(C)C [Pentadecanoylcarnitine (C15), pentadecanoylcarnitine]?
Answer: Significant log10 reduction compared to nontreated controls: Vascular endothelial growth factor s (VEGFR2) [5]: −0.11 log10; Significant log10 reduction compared to nontreated controls: Secreted interleukin 2 (IL-2) ([1]; 2.2 μM): −0.11 log10; Significant log10 reduction compared to nontreated controls: Secreted interleukin 6 (IL-6) ([1]; 6.7 μM): −0.13 log10; Significant log10 reduction compared to nontreated controls: Tumor necrosis factor alpha (TNFα) ([1]; 6.7 μM): −0.10 log10; Significant log10 reduction compared to nontreated controls: Matrix metalloproteinase 1 (MMP-1) ([2]; HDF3CGF system, 6.7 μM): −0.12 log10; Significant log10 reduction compared to nontreated controls: Alpha smooth muscle actin (αSMA) ([6]; 0.7 μM): −0.16 log10; Significant log10 reduction compared to nontreated controls: Alpha smooth muscle actin (αSMA) ([6]; 2.2 μM): −0.18 log10; Significant log10 reduction compared to nontreated controls: Alpha smooth muscle actin (αSMA) ([6]; 6.7 μM): −0.26 log10; Significant log10 reduction compared to nontreated controls: E-selectin ([3]; SAg system, 6.7 μM): −0.11 log10; Significant log10 reduction compared to nontreated controls: T cell proliferation ([3]; SAg system, 6.7 μM): −0.17 log10; Significant log10 reduction compared to nontreated controls: Interferon-inducible T cell alpha chemoattractant (I-TAC)/CXCL11 ([7]; 0.7 μM): −0.13 log10; Significant log10 reduction compared to nontreated controls: Interleukin 1 alpha (IL-1α) ([7]; 0.7 μM): −0.06 log10; Significant log10 reduction compared to nontreated controls: Interferon-inducible T cell alpha chemoattractant (I-TAC)/CXCL11 ([7]; 2.2 μM): −0.17 log10; Significant log10 reduction compared to nontreated controls: Interleukin 1 alpha (IL-1α) ([7]; 2.2 μM): −0.06 log10; Significant log10 reduction compared to nontreated controls: Matrix metalloproteinase 1 (MMP-1) ([7]; 2.2 μM): −0.05 log10; Significant log10 reduction compared to nontreated controls: Matrix metalloproteinase 9 (MMP-9) ([7]; 2.2 μM): −0.08 log10; Significant log10 reduction compared to nontreated controls: Plasminogen activation inhibitor 1 (PAI-1) ([7]; 2.2 μM): −0.08 log10; Significant log10 reduction compared to nontreated controls: Tissue plasminogen activator (tPA) ([7]; 2.2 μM): −0.11 log10; Significant log10 reduction compared to nontreated controls: Human leukocyte antigen-DR isotype (HLA-DR) ([7]; 6.7 μM): −0.63 log10; Significant log10 reduction compared to nontreated controls: Interferon gamma-induced protein 10 (IP-10)/CXCL10 ([7]; 6.7 μM): −0.1 log10; Significant log10 reduction compared to nontreated controls: Interferon-inducible T cell alpha chemoattractant (I-TAC)/CXCL11 ([7]; 6.7 μM): −0.54 log10; Significant log10 reduction compared to nontreated controls: Interleukin 1 alpha (IL-1α) ([7]; 6.7 μM): −0.19 log10; Significant log10 reduction compared to nontreated controls: Interleukin 8 (IL-8)/CXCL8 ([7]; 6.7 μM): −0.21 log10; Significant log10 reduction compared to nontreated controls: Matrix metalloproteinase 1 (MMP-1) ([7]; 6.7 μM): −0.27 log10; Significant log10 reduction compared to nontreated controls: Matrix metalloproteinase 9 (MMP-9) ([7]; 6.7 μM): −0.34 log10; Significant log10 reduction compared to nontreated controls: Monokine induced by gamma interferon (MIG)/CXCL9 ([7]; 6.7 μM): −0.60 log10; Significant log10 reduction compared to nontreated controls: Plasminogen activation inhibitor 1 (PAI-1) ([7]; 6.7 μM): −0.24 log10; Significant log10 reduction compared to nontreated controls: Tissue plasminogen activator (tPA) ([7]; 6.7 μM): −0.43 log10; Significant log10 reduction compared to nontreated controls: Monocyte chemoattractant protein 1 (MCP-1) ([8]; 2.2 μM): −0.17 log10; Significant log10 reduction compared to nontreated controls: Monocyte chemoattractant protein 1 (MCP-1) ([8]; 6.7 μM): −0.25 log10; Significant log10 reduction compared to nontreated controls: Secreted interleukin 10 (IL-10) ([8]; 6.7 μM): −0.13 log10; Significant log10 reduction compared to nontreated controls: Interferon gamma-induced protein 10 (IP-10)/CXCL10 ([9]; 0.7 μM): −0.14 log10; Significant log10 reduction compared to nontreated controls: Interferon gamma-induced protein 10 (IP-10)/CXCL10 ([9]; 2.2 μM): −0.09 log10; Significant log10 reduction compared to nontreated controls: Interferon gamma-induced protein 10 (IP-10)/CXCL10 ([9]; 6.7 μM): −0.10 log10
